Test results: patent publication US8324390B2, “Tetrazole-substituted anthranilamides as pesticides” (Bayer CropScience AG, priority 2008, dated 2012)
Like-named read-outs stand apart in the source and are kept apart here.

How the values were obtained:
[1] = system: green peach aphid (Myzus persicae); assay: Myzus test (MYZUPE spray treatment); format: in vivo; conditions: Myzus persicae, foliar, read-out: effect in % (aphids killed)
From the text: Solvent: 78 parts by weight of acetone
(§1) Solvent: 78.0 parts by weight of acetone

[2] = system: caterpillars of the armyworm (Spodoptera frugiperda); assay: Spodoptera frugiperda test (SPODFR spray treatment); format: in vivo; conditions: Spodoptera frugiperda, foliar, read-out: effect in % (caterpillars killed)
From the text: as §1

[3] = log P determination by HPLC (EEC Directive 79/831 Annex V.A8); format: physicochemical
Method: The measurements were carried out using an Agilent 1100 LC system with a 50*4.6 Zorbax Eclipse C18 1.8 μm column (oven temperature 55° C., flow rate 2.0 ml/min).
The following mobile phases were used:
Mobile phase A: acetonitrile+1000 μl of formic acid/l
Mobile phase B: Millipore water+900 μl of formic acid/l

[4] = system: larvae of the mustard beetle (Phaedon cochleariae); assay: Phaedon test (PHAECO spray treatment); conditions: Phaedon cochleariae, in Brassica rapa, foliar, read-out: effect in % (beetle larvae killed)
[5] = application rate 100 g/ha, Chinese cabbage leaf discs
[6] = application rate 100 g/ha, maize leaf discs
[7] = reversed-phase HPLC, Zorbax Eclipse C18 column, determined by HPLC according to EEC Directive 79/831 Annex V.A8, read-out: log P
[8] = reversed-phase HPLC, Zorbax Eclipse C18 column, by HPLC according to EEC Directive 79/831 Annex V.A8, read-out: log P

| SMILES | pest or weed control at 100 g/ha ([1]; in Brassica rapa) [%] | pest or weed control at 100 g/ha ([2]; in Zea mays) [%] | chromatographic logP ([3]; log P) | pest or weed control at 100 g/ha [4] [%] | pest or weed control at 100 g/ha [1, 5] [%] | pest or weed control at 100 g/ha [2, 6] [%] | chromatographic logP [3, 7] | chromatographic logP [3, 8] | pest or weed control at 20 g/ha ([1]; application rate 20 g/ha, Chinese cabbage leaf discs) [%] | pest or weed control at 20 g/ha ([1]; in Brassica rapa) [%] |
| --- | --- | --- | --- | --- | --- | --- | --- | --- | --- | --- |
| Cc1cc(C#N)cc(C(=O)NC(C)C)c1NC(=O)c1cc(Cn2nnc(C(F)F)n2)nn1-c1ncccc1Cl [Example 266] | ≥ 80 | ≥ 80 | 2.58 | ≥ 80 | – | – | – | – | – | – |
| CNC(=O)c1cc(Cl)cc(Cl)c1NC(=O)c1cc(Cn2nnnc2C(F)F)nn1-c1ncccc1Cl [Example 476] | ≥ 80 | ≥ 80 | 2.22 | ≥ 80 | – | – | – | – | – | – |
| Cc1cc(I)cc(C(=O)NC(C)C)c1NC(=O)c1cc(Cn2nnnc2C(F)(F)F)nn1-c1ncccc1C(F)(F)F [Example 450] | – | – | – | ≥ 80 | ≥ 80 | ≥ 80 | 3.54 | – | – | – |
| Cc1cc(C#N)cc(C(=O)NC(C)(C)C)c1NC(=O)c1cc(Cn2nnnc2C(F)(F)F)nn1-c1ncccc1Cl [Example 160] | ≥ 80 | ≥ 80 | 3.05 | ≥ 80 | – | – | – | – | – | – |
| Cc1cc(C#N)cc(C(=O)NC2(C)CCC2)c1NC(=O)c1cc(Cn2nnc(C(F)(F)F)n2)nn1-c1ncccc1Cl [Example 89] | ≥ 80 | ≥ 80 | 3.46 | ≥ 80 | – | – | – | – | – | – |
| Cc1cc(F)cc(C(=O)NC(C)C2CC2)c1NC(=O)c1cc(Cn2nnc(C(F)(F)F)n2)nn1-c1ncccc1Cl (stereo not shown) [Example 32] | ≥ 80 | ≥ 80 | 3.41 | ≥ 80 | – | – | – | – | – | – |
| Cc1cc(I)cc(C(N)=O)c1NC(=O)c1cc(Cn2nnc(C(F)F)n2)nn1-c1ncccc1Cl [Example 272] | ≥ 80 | ≥ 80 | 2.53 | ≥ 80 | – | – | – | – | – | – |
| Cc1cc(Cl)cc(C(=O)NC(C)(C)C)c1NC(=O)c1cc(Cn2nnc(C(F)(F)F)n2)nn1-c1ncccc1C(F)(F)F [Example 224] | – | – | – | ≥ 80 | ≥ 80 | ≥ 80 | – | 4 | – | – |
| Cc1cc(I)cc(C(=O)NC2CCC2)c1NC(=O)c1cc(Cn2nnc(C(F)F)n2)nn1-c1ncccc1Cl [Example 280] | ≥ 80 | ≥ 80 | 3.34 | ≥ 80 | – | – | – | – | – | – |
| Cc1cc(C#N)cc(C(=O)N[C@@H]2C[C@H]2CO)c1NC(=O)c1cc(Cn2nnc(C(F)(F)F)n2)nn1-c1ncccc1Cl [Example 76] | ≥ 80 | ≥ 80 | 2.39 | ≥ 80 | – | – | – | – | – | – |
| CNC(=O)c1cc(S(C)(=O)=O)cc(C)c1NC(=O)c1cc(Cn2nnc(C(F)(F)F)n2)nn1-c1ccccc1Cl [Example 441] | – | – | – | ≥ 80 | ≥ 80 | ≥ 80 | 2.73 | – | – | – |
| Cc1cc(C#N)cc(C(=O)NC(C)(C)C)c1NC(=O)c1cc(Cn2nnnc2C(F)(F)F)nn1-c1ncccc1F [Example 509] | – | – | – | ≥ 80 | ≥ 80 | ≥ 80 | 2.92 | – | – | – |
| CCNC(=O)c1cc(C#N)cc(C)c1NC(=O)c1cc(Cn2nnnc2C(F)(F)F)nn1-c1ncccc1Br [Example 478] | – | – | – | ≥ 80 | ≥ 80 | ≥ 80 | 2.66 | – | – | – |
| CCNC(=O)c1cc(C#N)cc(C)c1NC(=O)c1cc(Cn2nnc(C(F)(F)F)n2)nn1-c1ncccc1Cl [Example 21] | ≥ 80 | ≥ 80 | 2.85 | ≥ 80 | – | – | – | – | – | – |
| Cc1cc(Cl)cc(C(=O)NC(C)(C)C)c1NC(=O)c1cc(Cn2nnc(C(F)(F)F)n2)nn1-c1ncccc1Br [Example 329] | – | – | – | ≥ 80 | – | ≥ 80 | – | 3.88 | ≥ 80 | – |
| CCNC(=O)c1cc(C#N)cc(C)c1NC(=O)c1cc(Cn2nnc(C(F)(F)C(F)(F)F)n2)nn1-c1ccccc1Cl [Example 532] | – | – | – | ≥ 80 | ≥ 80 | ≥ 80 | 3.87 | – | – | – |
| Cc1cc(C#N)cc(C(=O)NC2CCC2)c1NC(=O)c1cc(Cn2nnc(C(F)(F)F)n2)nn1-c1ncccc1Cl [Example 24] | ≥ 80 | ≥ 80 | 3.18 | ≥ 80 | – | – | – | – | – | – |

| SMILES | pest or weed control at 100 g/ha ([1]; in Brassica rapa) [%] | pest or weed control at 100 g/ha ([2]; in Zea mays) [%] | chromatographic logP ([3]; log P) | pest or weed control at 100 g/ha [4] [%] | pest or weed control at 100 g/ha [1, 5] [%] | pest or weed control at 100 g/ha [2, 6] [%] | chromatographic logP [3, 7] | chromatographic logP [3, 8] | pest or weed control at 20 g/ha ([1]; application rate 20 g/ha, Chinese cabbage leaf discs) [%] | pest or weed control at 20 g/ha ([1]; in Brassica rapa) [%] |
| --- | --- | --- | --- | --- | --- | --- | --- | --- | --- | --- |
| NC(=O)c1cc(Cl)cc(Cl)c1NC(=O)c1cc(Cn2nnc(C(F)(C(F)(F)F)C(F)(F)F)n2)nn1-c1ncccc1Cl [Example 391] | ≥ 80 | ≥ 80 | 3.41 | ≥ 80 | – | – | – | – | – | – |
| Cc1cc(C#N)cc(C(=O)NC(C)(C)C)c1NC(=O)c1cc(Cn2nnc(C(F)(F)C(F)(F)F)n2)nn1-c1ccccc1Cl [Example 434] | – | – | – | ≥ 80 | ≥ 80 | ≥ 80 | 4.25 | – | – | – |
| Cc1cc(Br)cc(C(=O)NC(C)(C)C)c1NC(=O)c1cc(Cn2nnc(C(F)(F)F)n2)nn1-c1ncccc1Cl [Example 114] | ≥ 80 | ≥ 80 | 4 | ≥ 80 | – | – | – | – | – | – |
| Cc1cc(Br)cc(C(=O)NC2CC2)c1NC(=O)c1cc(Cn2nnnc2C(F)(F)F)nn1-c1ncccc1Cl [Example 181] | ≥ 80 | ≥ 80 | 2.99 | ≥ 80 | – | – | – | – | – | – |
| CSC[C@H](C)NC(=O)c1cc(Cl)cc(C)c1NC(=O)c1cc(Cn2nnc(C(F)(F)F)n2)nn1-c1ncccc1Cl [Example 41] | ≥ 80 | ≥ 80 | 3.68 | ≥ 80 | – | – | – | – | – | – |
| Cc1cc(Cl)cc(C(=O)NC(C)C2CC2)c1NC(=O)c1cc(Cn2nnnc2C(F)F)nn1-c1ncccc1Cl (stereo not shown) [Example 460] | – | ≥ 80 | 3.07 | ≥ 80 | – | – | – | – | – | ≥ 80 |
| Cc1cc(Br)cc(C(=O)NC(C)C)c1NC(=O)c1cc(Cn2nnnc2C(F)(F)F)nn1-c1ncccc1Br [Example 501] | – | – | – | ≥ 80 | ≥ 80 | ≥ 80 | 3.27 | – | – | – |
| CNC(=O)c1cc(Cl)cc(C)c1NC(=O)c1cc(Cn2nnc(C(F)F)n2)nn1-c1ncccc1Cl [Example 255] | ≥ 80 | ≥ 80 | 2.46 | ≥ 80 | – | – | – | – | – | – |
| CNC(=O)c1cc(I)cc(C)c1NC(=O)c1cc(Cn2nnc(C(F)(C(F)(F)F)C(F)(F)F)n2)nn1-c1ncccc1Cl [Example 377] | ≥ 80 | ≥ 80 | 3.94 | ≥ 80 | – | – | – | – | – | – |
| CC(C)NC(=O)c1cc(Cl)cc(Cl)c1NC(=O)c1cc(Cn2nnc(C(F)F)n2)nn1-c1ncccc1Cl [Example 286] | ≥ 80 | ≥ 80 | 2.91 | ≥ 80 | – | – | – | – | – | – |
| Cc1cc(C#N)cc(C(=O)NC2CCC2)c1NC(=O)c1cc(Cn2nnnc2C(F)(F)F)nn1-c1ncccc1Cl [Example 186] | ≥ 80 | ≥ 80 | 2.83 | ≥ 80 | – | – | – | – | – | – |
| CSC[C@H](C)NC(=O)c1cc(I)cc(C)c1NC(=O)c1cc(Cn2nnc(C(F)(F)F)n2)nn1-c1ncccc1Cl [Example 74] | ≥ 80 | ≥ 80 | 3.9 | ≥ 80 | – | – | – | – | – | – |
| CNC(=O)c1cc(Cl)cc(C)c1NC(=O)c1cc(Cn2nnnc2C(F)F)nn1-c1ncccc1Cl [Example 470] | ≥ 80 | ≥ 80 | 2.26 | ≥ 80 | – | – | – | – | – | – |
| CCNC(=O)c1cc(C#N)cc(C)c1NC(=O)c1cc(Cn2nnc(C(F)(F)C(F)(F)F)n2)nn1-c1ncccc1Br [Example 426] | – | – | – | ≥ 80 | ≥ 80 | ≥ 80 | 3.23 | – | – | – |
| Cc1cc(C#N)cc(C(=O)NC(C)(C)C)c1NC(=O)c1cc(Cn2nnnc2C(F)(F)F)nn1-c1ccccc1C(F)(F)F [Example 488] | – | – | – | ≥ 80 | ≥ 80 | ≥ 80 | 3.58 | – | – | – |
| Cc1cc(Cl)cc(C(=O)NC2CC2)c1NC(=O)c1cc(Cn2nnnc2C(F)(F)C(F)(F)F)nn1-c1ncccc1Br [Example 515] | – | – | – | ≥ 80 | ≥ 80 | ≥ 80 | 3.29 | – | – | – |
| CC(C)NC(=O)c1cc(Cl)cc(Cl)c1NC(=O)c1cc(Cn2nnnc2C(F)F)nn1-c1ncccc1Cl [Example 466] | ≥ 80 | ≥ 80 | 2.71 | ≥ 80 | – | – | – | – | – | – |
